The values below come from patent publication EP0094833A2, “Novel 1,2-benzisoxazole derivatives” (Dainippon Pharmaceutical Co., Ltd., priority 1982, dated 1983).

Molecules are shown by their SMILES. Converted amounts (≈) assume the structure as drawn. Structures can show the parent of a compound that is named as a salt. Where two headings read alike, the source gives them in different places.

Assay [1] has as its system ileum. Briefly: Inhibitory effect on contractile response induced by acetylcholine (Anti-ACh), isolated ileum. As to conditions: Cavia porcellus, read-out: Anti-ACh (IC50 : g/ml). It counts as cell-based, guinea pig.
In assay [2] the test system is guinea pig taenia-coli. Briefly: Inhibitory effect on contractile response induced by potassium chloride (Anti-KCl), isolated taenia-coli. The note with it: Cavia porcellus, read-out: IC50 (g/ml) Anti-KCl. It counts as cell-based. The procedure: Experiment 2 Inhibitory effect on contractile response induced by potassium chloride (Anti-KC1) In the same manner as described in the above Experiment 1, isolated guinea pig taenia-coli about 3 cm in length was prepared, and mounted in Tyrode's solution. The contractile response was measured with an isometric transducer and recorded on recticorder. Each preparation was adjusted to a tension of .lg and allowed to equilibrate for 30 minutes before measuring the effects of the test compounds. Test compounds were applied to 5 minutes before adding potassium chloride (40 mM). Each Compound was tested in 2 - 3 concentrations.

Assay [3] relates to spontaneous gastric motility. The experiment in a line: Inhibitory effect on spontaneous gastric motility (Anti-SGM) in conscious rats. The class given is in vivo, male Wistar strain rats. The note with it: Rat, maximum percent inhibition of initial spontaneous motility. The procedure: (§1) Experiment 3 Inhibitory effect on spontaneous gastric motility (Anti-SGM)
(§2) This effect was examined using male Wistar strain rats or male Albino strain rabbits, with chronically implanted strain gauge force transducer. The rats or rabbits were allowed to stand for 3 - 5 days for recovery from the surgery and fasted for 18 hours before experiment. Then, spontaneous gastric motility in conscious rats or rabbits was recorded and the sum of amplitude of each contraction was calculated every 15 minutes. Inhibitory effect of test compound by oral administration was expressed as a maximum percent inhibition of initial spontaneous motility.

The subject of assay [4] is spontaneous gastric motility. The experiment in a line: Inhibitory effect on spontaneous gastric motility (Anti-SGM) in conscious rabbits. The class given is in vivo, male Albino strain rabbits. As to conditions: Rabbit, 100 mg/kg po, maximum percent inhibition of initial spontaneous motility. The procedure: as §1, §2
Where [5] appears, read: guinea pig ileum, acetylcholine 2 X 10^-8 g/ml, test compound applied 2 minutes before.
Setting [6] is: guinea pig taenia-coli, potassium chloride 40 mM, test compound applied 5 minutes before.

For `CCCC[N+]1(C)C2CC(OC(=O)C(CO)c3ccccc3)CC1C1OC12` (stereo not shown) [Scopolamine-N-butyl bromide, reference compound], the IC50 in assay [1] (setting [5]) amounted to 0.089 µg/mL.
For the molecule `CN1CCC(OC(=O)C(Cc2ccccc2)(Cc2ccccc2)c2noc3ccccc23)CC1` [Example 28], the results for the IC50 in assay [1] (setting [5]) and in assay [2] (setting [6]) were 0.65 µg/mL (≈ 1.43 µM) and 0.56 µg/mL (≈ 1.23 µM), respectively.
On to `CN1CCC(OC(=O)C(c2noc3ccc(Cl)cc23)C2CCCCC2)CC1.O=C(O)C(=O)O` (stereo not drawn) [Example 2, 1-Methyl-4-piperidyl α-cyclohexyl-5-chloro-1,2-benzisoxazole-3-acetate oxalate], for which the IC50 came out at 0.34 µg/mL in assay [1] (setting [5]) and 3.2 µg/mL in assay [2] (setting [6]).
For the molecule `CC[N+](C)(CC)CCCOC(=O)C(c1noc2ccccc12)C1CCCCC1` (stereo not shown) [Example 32], the IC50 in assay [1] (setting [5]) is 0.21 µg/mL.
Take `COc1ccc(Cc2nccc3cc(OC)c(OC)cc23)cc1OC` [Papaverine hydrochloride, reference compound]: the IC50 in assay [1] came to 13 µg/mL; in assay [2], 1.3 µg/mL.
With `CC[N+]1(C)CCC(OC(=O)C(c2noc3ccccc23)C2CCCCC2)CC1.[Br-]` (stereo not shown) [Example 31, 1-Ethyl-1-methyl-4-[2-(1,2-benzisoxazol-3-yl)-2-cyclohexylacetoxy]piperidinium bromide], in assay [1] (setting [5]), the IC50 was found to be 0.014 µg/mL.
Regarding `C[N+]1(C)CCC(OC(=O)C(c2noc3ccc(Cl)cc23)C2CCCCC2)CC1` (racemic) [Example 35], the IC50 in assay [1] (setting [5]) was 0.057 µg/mL.
Consider `C[N+]1(C)CCC(OC(=O)C(c2noc3ccccc23)C2CCCCC2)CC1` (stereo not shown) [Example 33], for which the IC50 in assay [1] (setting [5]) is 0.013 µg/mL.
For the molecule `CCN(CC)CC(C)OC(=O)C(c1noc2ccccc12)C1CCCCC1` (stereo not shown) [Example 4], the results for the IC50 in assay [1] (setting [5]) and in assay [2] (setting [6]) were 0.42 µg/mL (≈ 1.13 µM) and 1.6 µg/mL (≈ 4.3 µM), respectively.
Consider `CCN(CC)CC(C)OC(=O)C1CCCCC1(O)C1CCCCC1` (stereo not shown) [Rociverine, reference compound], for which the IC50 in assay [1] (setting [5]) was determined as 1.1 µg/mL (≈ 3.24 µM); in assay [2] (setting [6]), 5.4 µg/mL (≈ 15.9 µM).
Turning to `CCN(CC)CCOC(=O)C(c1noc2ccccc12)C1CCCCC1` (stereo not shown) [Example 3], the values for the IC50 in assay [1] (setting [5]) and in assay [2] (setting [6]) were 0.12 µg/mL (≈ 0.335 µM) and 1 µg/mL (≈ 2.79 µM), respectively.
Consider `CCN(CC)CCOC(=O)C(c1noc2ccc(Cl)cc12)C1CCCCC1` (stereo not shown) [Example 10], for which the IC50 in assay [1] (setting [5]) was 0.87 µg/mL (≈ 2.21 µM); in assay [2] (setting [6]), 3.3 µg/mL (≈ 8.4 µM).
For `CCN(CC)CCCC(C)OC(=O)C(c1noc2ccccc12)C1CCCCC1` (stereo not shown) [Example 7], the IC50 in assay [1] (setting [5]) worked out at 0.69 µg/mL (≈ 1.72 µM).
For the molecule `O=C(OCCN1CCCC1)C(Cc1ccccc1)(Cc1ccccc1)c1noc2ccccc12` [Example 29], in assay [1] (setting [5]), the IC50 was determined as 0.96 µg/mL (≈ 2.11 µM).
As for `O=C(OCCN1CCCCC1)C(c1noc2ccccc12)C1CCCCC1` (stereo not shown) [Example 9], the IC50 worked out at 0.41 µg/mL (≈ 1.11 µM) in assay [1] (setting [5]) and 2.7 µg/mL (≈ 7.29 µM) in assay [2] (setting [6]).
For the molecule `CN1CCC(OC(=O)C(c2noc3ccccc23)C2CCCCC2)CC1` (stereo not shown) [Example 5], in assay [1] (setting [5]), the IC50 came to 0.037 µg/mL (≈ 0.104 µM).
In the case of `CC[N+](C)(CC)CCOC(=O)C(c1noc2ccccc12)C1CCCCC1` (racemic) [Example 34], in assay [1] (setting [5]), the IC50 is 0.026 µg/mL.
`Br.CCN(CC)CCCOC(=O)C(c1noc2ccccc12)C1CCCCC1` (stereo not drawn) [Example 1, 3-Diethylaminopropyl α-cyclohexyl-1,2-benzisoxazole-3-acetate hydrobromide]: the IC50 in assay [1] (setting [5]) amounted to 0.16 µg/mL; in assay [2] (setting [6]), 0.85 µg/mL. Also, the “Inhibition (%)” value worked out at 36% in assay [3] (100 mg/kg po), 49% in assay [3] (200 mg/kg po) and 52% in assay [4].
Turning to `CCN(CC)CCCCOC(=O)C(c1noc2ccccc12)C1CCCCC1` (stereo not shown) [Example 8], the IC50 in assay [1] (setting [5]) came to 0.48 µg/mL (≈ 1.24 µM).
